# Reference: PubChem BioAssay (NCI)
#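 Here, GI50 denotes the concentration required for 50% inhibition of growth. TGI: concentration producing complete growth inhibition.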
# Assays:
# Test in all cases: NCI-60 cell line screen, 384-well format
# [1] = system: PC-3 prostate
# [2] = system: MDA-MB-468 breast
# [3] = system: A498 renal
# [4] = system: IGROV1 ovarian
# [5] = system: T-47D breast
# [6] = system: M14 melanoma
# [7] = system: NCI-H322M lung
# [8] = system: SK-OV-3 ovarian
# [9] = system: MDA-MB-231 breast
# [10] = system: MDA-MB-435 melanoma
# [11] = system: EKVX NSCLC
# [12] = system: NCI-H226 lung
# [13] = system: SK-MEL-28 melanoma
# [14] = system: NCI-H522 lung
# [15] = system: SF-539 CNS
# [16] = system: UACC-257 melanoma
# [17] = system: HCC-2998 colon
# [18] = system: OVCAR-5 ovarian
# [19] = system: CAKI-1 renal
# [20] = system: SR leukemia
# [21] = system: MOLT-4 leukemia
# [22] = system: OVCAR-4 ovarian
# [23] = system: UACC-62 melanoma
# [24] = system: HCT-116 colon
# [25] = system: RPMI-8226 leukemia
# [26] = system: SNB-75 CNS
# [27] = system: TK-10 renal
# [28] = system: RXF 393 renal
# [29] = system: BT-549 breast
# [30] = system: SN12C renal
# [31] = system: A549 NSCLC
# [32] = system: KM12 colon
# [33] = system: COLO 205 colon
# [34] = system: U251 glioblastoma
# [35] = system: OVCAR-8 ovarian
# [36] = system: MALME-3M melanoma
# [37] = system: DU-145 prostate
# [38] = system: HCT-15 colon
# [39] = system: HS 578T breast
# [40] = system: NCI-H460 NSCLC
# [41] = system: OVCAR-3 ovarian
# [42] = system: SF-268 CNS
# [43] = system: SF-295 CNS
# [44] = system: LOX IMVI melanoma
# [45] = system: SK-MEL-5 melanoma
# [46] = system: NCI-H23 lung
# [47] = system: MCF7 breast
# [48] = system: ACHN renal
# [49] = system: SNB-19 CNS
# [50] = system: HT29 colon
# [51] = system: NCI/ADR-RES ovarian
# [52] = system: HOP-62 NSCLC
# [53] = system: HL-60(TB) leukemia
# [54] = system: HOP-92 NSCLC
structure (smiles),measurement,setting,value
Clc1ccc(N2CCC(N3CCCC3)CC2)cc1-c1nc2ccccc2[nH]1,GI50,[1],15.1 µM
same,TGI,[1],30.5 µM
same,GI50,[2],14.1 µM
same,TGI,[2],27.3 µM
same,GI50,[3],14.4 µM
same,TGI,[3],27.6 µM
same,GI50,[4],15.5 µM
same,TGI,[4],29.5 µM
same,GI50,[5],13.9 µM
same,TGI,[5],27.4 µM
same,GI50,[6],18 µM
same,TGI,[6],32 µM
same,GI50,[7],14.3 µM
same,TGI,[7],32 µM
same,GI50,[8],14.1 µM
same,TGI,[8],27.5 µM
same,GI50,[9],17 µM
same,TGI,[9],31.2 µM
same,GI50,[10],17.1 µM
same,TGI,[10],30.9 µM
same,GI50,[11],14.2 µM
same,TGI,[11],28.1 µM
same,GI50,[12],15.2 µM
same,TGI,[12],28.6 µM
same,GI50,[13],14.9 µM
same,TGI,[13],28.3 µM
same,GI50,[14],17.7 µM
same,TGI,[14],31.6 µM
same,GI50,[15],16.9 µM
same,TGI,[15],30.9 µM
same,GI50,[16],2 µM
same,TGI,[16],4.78 µM
same,GI50,[17],12.5 µM
same,TGI,[17],25.3 µM
same,GI50,[18],15.8 µM
same,TGI,[18],30.1 µM
same,GI50,[19],16.9 µM
same,TGI,[19],33.4 µM
same,GI50,[20],11.8 µM
same,TGI,[20],24.2 µM
same,GI50,[21],16.5 µM
same,TGI,[21],30.3 µM
same,GI50,[22],11.9 µM
same,TGI,[22],25.9 µM
same,GI50,[23],13.5 µM
same,TGI,[23],26.6 µM
same,GI50,[24],11.7 µM
same,TGI,[24],24.7 µM
same,GI50,[25],16.1 µM
same,TGI,[25],29.7 µM
same,GI50,[26],16.9 µM
same,TGI,[26],31 µM
same,GI50,[27],12.4 µM
same,TGI,[27],25 µM
same,GI50,[28],15.1 µM
same,TGI,[28],28.6 µM
same,GI50,[29],8.67 µM
same,TGI,[29],20.9 µM
same,GI50,[30],11.8 µM
same,TGI,[30],24.5 µM
same,GI50,[31],17.2 µM
same,TGI,[31],32.3 µM
same,GI50,[32],14.8 µM
same,TGI,[32],29.1 µM
same,GI50,[33],14.3 µM
same,TGI,[33],27.6 µM
same,GI50,[34],16.9 µM
same,TGI,[34],30.7 µM
same,GI50,[35],16.7 µM
same,TGI,[35],31.1 µM
same,GI50,[36],13 µM
same,TGI,[36],25.8 µM
same,GI50,[37],15.3 µM
same,TGI,[37],32.5 µM
same,GI50,[38],3.84 µM
same,TGI,[38],14.1 µM
same,GI50,[39],14.8 µM
same,TGI,[39],28.1 µM
same,GI50,[40],17.2 µM
same,TGI,[40],31.4 µM
same,GI50,[41],14.6 µM
same,TGI,[41],28 µM
same,GI50,[42],16.3 µM
same,TGI,[42],30.1 µM
same,GI50,[43],17.8 µM
same,TGI,[43],31.8 µM
same,GI50,[44],16.5 µM
same,TGI,[44],30.2 µM
same,GI50,[45],4.01 µM
same,TGI,[45],16 µM
same,GI50,[46],14.1 µM
same,TGI,[46],27.7 µM
same,GI50,[47],12.1 µM
same,TGI,[47],25.4 µM
same,GI50,[48],16.6 µM
same,TGI,[48],30.8 µM
same,GI50,[49],18.2 µM
same,TGI,[49],37 µM
same,GI50,[50],10.9 µM
same,TGI,[50],23.6 µM
same,GI50,[51],15.4 µM
same,TGI,[51],32.5 µM
same,GI50,[52],16.1 µM
same,TGI,[52],29.8 µM
same,GI50,[53],12.3 µM
same,TGI,[53],25 µM
same,GI50,[54],18.4 µM
same,TGI,[54],32.8 µM
